We go through 23 compounds from PMC6149751, “Spiro[pyrrolidine-3,3′-oxindoles] and Their Indoline Analogues as New 5-HT6 Receptor Chemotypes” (Molecules : A Journal of Synthetic Chemistry and Natural …, 2017).

Like-named read-outs stand apart in the source and are kept apart here.

Format in all cases: binding
For one test, the target named is T1, 5-HT7bR (Homo sapiens, UniProt P34969).
T1 construct: gene HTR7; human splice isoform 5-HT7b stably expressed in HEK293 cells; membranes
Description: [3H]-5-CT displacement, HEK293 membranes. The text has this: [3H]-5-CT displacement, HEK293 membranes on 5-HT7bR

The next test addresses T2, 5-HT2AR (Homo sapiens, UniProt P28223).
T2 construct: gene HTR2A; full-length human receptor expressed from plasmid in CHO-K1 cells (PerkinElmer); membranes
The experiment in a line: [3H]-Ketanserin displacement, CHO-K1 membranes. The text has this: [3H]-Ketanserin displacement, CHO-K1 membranes on 5-HT2AR

Another test concerns the target T3, 5-HT6R (Homo sapiens, UniProt P50406).
T3 construct: gene HTR6; full-length human receptor stably expressed in HEK293 cells; membranes
Description: [3H]-LSD displacement, HEK293 membranes. The text has this:
[3H]-LSD displacement, HEK293 membranes on 5-HT6R

Another test concerns the target T4, 5-HT1AR (Homo sapiens, UniProt P08908).
T4 construct: gene HTR1A; full-length human receptor stably expressed in HEK293 cells; membranes
T4 sequence (P08908 1-422): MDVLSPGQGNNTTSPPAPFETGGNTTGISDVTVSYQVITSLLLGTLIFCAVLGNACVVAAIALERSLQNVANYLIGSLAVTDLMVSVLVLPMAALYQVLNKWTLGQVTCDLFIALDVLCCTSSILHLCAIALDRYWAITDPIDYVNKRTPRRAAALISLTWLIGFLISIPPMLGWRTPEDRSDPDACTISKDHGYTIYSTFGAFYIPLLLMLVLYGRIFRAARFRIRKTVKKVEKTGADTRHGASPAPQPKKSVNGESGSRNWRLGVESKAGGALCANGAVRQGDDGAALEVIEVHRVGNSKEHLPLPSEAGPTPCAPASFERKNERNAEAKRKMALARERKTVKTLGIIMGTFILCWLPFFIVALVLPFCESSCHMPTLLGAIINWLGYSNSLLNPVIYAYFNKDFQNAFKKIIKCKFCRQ
The experiment in a line: [3H]-8-OH-DPAT displacement, HEK293 membranes. The text has this: [3H]-8-OH-DPAT displacement, HEK293 membranes on 5-HT1AR

T2 sequence (P28223 whole entry): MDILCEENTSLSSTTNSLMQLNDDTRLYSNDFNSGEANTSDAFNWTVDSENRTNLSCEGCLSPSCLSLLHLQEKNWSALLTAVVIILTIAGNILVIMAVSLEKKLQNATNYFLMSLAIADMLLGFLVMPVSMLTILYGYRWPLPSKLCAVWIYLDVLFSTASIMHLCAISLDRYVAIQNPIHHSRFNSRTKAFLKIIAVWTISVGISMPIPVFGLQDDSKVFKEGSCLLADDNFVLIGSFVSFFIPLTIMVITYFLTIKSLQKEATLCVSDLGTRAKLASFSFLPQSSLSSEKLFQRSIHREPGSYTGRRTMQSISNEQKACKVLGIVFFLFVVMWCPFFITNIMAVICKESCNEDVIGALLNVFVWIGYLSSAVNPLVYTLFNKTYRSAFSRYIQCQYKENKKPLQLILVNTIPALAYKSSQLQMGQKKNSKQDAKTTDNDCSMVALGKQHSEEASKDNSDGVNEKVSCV
T3 sequence (P50406 whole entry): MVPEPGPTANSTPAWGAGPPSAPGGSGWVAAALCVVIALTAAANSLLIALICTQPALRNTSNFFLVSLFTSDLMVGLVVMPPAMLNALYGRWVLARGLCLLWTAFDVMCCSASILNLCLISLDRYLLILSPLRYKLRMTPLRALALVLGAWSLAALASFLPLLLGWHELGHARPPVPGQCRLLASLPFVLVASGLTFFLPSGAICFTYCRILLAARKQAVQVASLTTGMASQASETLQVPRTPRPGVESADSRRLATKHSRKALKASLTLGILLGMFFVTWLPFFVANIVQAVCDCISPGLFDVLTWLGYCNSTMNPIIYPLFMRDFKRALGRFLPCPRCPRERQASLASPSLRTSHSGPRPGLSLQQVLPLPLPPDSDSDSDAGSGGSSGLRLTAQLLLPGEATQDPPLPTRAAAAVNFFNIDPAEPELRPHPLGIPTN
T1 sequence (P34969 1-432): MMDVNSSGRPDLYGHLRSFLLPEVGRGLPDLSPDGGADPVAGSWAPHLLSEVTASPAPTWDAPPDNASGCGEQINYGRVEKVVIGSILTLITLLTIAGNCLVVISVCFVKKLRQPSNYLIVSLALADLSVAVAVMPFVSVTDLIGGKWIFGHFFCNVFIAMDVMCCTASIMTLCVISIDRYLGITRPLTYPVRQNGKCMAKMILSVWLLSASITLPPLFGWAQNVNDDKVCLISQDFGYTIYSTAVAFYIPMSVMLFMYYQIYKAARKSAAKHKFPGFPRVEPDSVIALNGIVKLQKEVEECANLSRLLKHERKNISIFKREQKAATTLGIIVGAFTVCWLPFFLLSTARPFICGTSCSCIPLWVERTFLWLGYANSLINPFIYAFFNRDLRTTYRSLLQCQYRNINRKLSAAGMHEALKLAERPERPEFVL

`O=S(=O)(c1ccccc1)N1CC2(CCN(Cc3ccccc3)C2)c2ccccc21` (centres unmarked) [39a, 1′-Benzyl-1-(phenylsulfonyl)spiro[indoline-3,3′-pyrrolidine]]: the Ki turned out to be 55.8 µM on 5-HT7bR (read-out: 5-HT7), 4.76 µM on 5-HT2AR (read-out: 5-HT2A) and 0.76 µM on 5-HT6R (read-out: 5-HT6).

As for `O=S(=O)(c1ccccc1)N1CC2(CCN(Cc3ccncc3)C2)c2ccccc21` (centres unmarked) [39b, 1-(Phenylsulfonyl)-1′-(pyridin-4-ylmethyl)spiro[indoline-3,3′-pyrrolidine]], the values for the Ki at 5-HT2AR and on 5-HT6R were 26.9 µM and 6.6 µM, respectively.

For the compound `CN1CCC2(C1)CN(S(=O)(=O)c1ccccc1)c1ccccc12` (centres unmarked) [40a, 1′-Methyl-1-(phenylsulfonyl)spiro[indoline-3,3′-pyrrolidine]], the Ki at 5-HT7bR (read-out: 5-HT7) was 40.2 µM; on 5-HT2AR (read-out: 5-HT2A) it was 4.52 µM; at 5-HT6R (read-out: 5-HT6), 1.85 µM.

`CCN1CCC2(C1)CN(S(=O)(=O)c1ccccc1)c1ccccc12` (centres unmarked) [40b, 1′-Ethyl-1-(phenylsulfonyl)spiro[indoline-3,3′-pyrrolidine]]: the Ki on 5-HT2AR (read-out: 5-HT2A) worked out at 3.82 µM; on 5-HT6R (read-out: 5-HT6), 2.42 µM.

In the case of `O=S(=O)(c1ccccc1)N1CC2(CCN(Cc3ccccc3F)C2)c2ccccc21` (centres unmarked) [44a, 1′-(2-Fluorobenzyl)-1-(phenylsulfonyl)spiro[indoline-3,3′-pyrrolidine]], the Ki on 5-HT7bR was found to be 78.9 µM; on 5-HT6R it was 4.53 µM.

For the compound `O=S(=O)(c1ccccc1)N1CC2(CCN(Cc3cccc(F)c3)C2)c2ccccc21` (centres unmarked) [44b, 1′-(3-Fluorobenzyl)-1-(phenylsulfonyl)spiro[indoline-3,3′-pyrrolidine]], the figures for the Ki at 5-HT7bR (read-out: 5-HT7) and at 5-HT6R (read-out: 5-HT6) were 31.5 µM and 1.97 µM, respectively.

Turning to `O=S(=O)(c1ccccc1)N1CC2(CCN(Cc3ccc(F)cc3)C2)c2ccccc21` (centres unmarked) [44c, 1′-(4-Fluorobenzyl)-1-(phenylsulfonyl)spiro[indoline-3,3′-pyrrolidine]], the Ki on 5-HT7bR (read-out: 5-HT7) is 15.7 µM; at 5-HT6R (read-out: 5-HT6), 1.77 µM.

On to `O=S(=O)(c1ccccc1F)N1CC2(CCN(Cc3ccccc3)C2)c2ccccc21` (centres unmarked) [46a, 1′-Benzyl-1-((2-fluorophenyl)sulfonyl)spiro[indoline-3,3′-pyrrolidine]], for which the Ki worked out at 42.6 µM on 5-HT7bR (read-out: 5-HT7) and 0.19 µM on 5-HT6R (read-out: 5-HT6).

On to `O=S(=O)(c1cccc(F)c1)N1CC2(CCN(Cc3ccccc3)C2)c2ccccc21` (centres unmarked) [46b, 1′-Benzyl-1-((3-fluorophenyl)sulfonyl)spiro[indoline-3,3′-pyrrolidine]], for which the Ki stood at 76 µM at 5-HT7bR (read-out: 5-HT7) and 0.71 µM on 5-HT6R (read-out: 5-HT6).

For `O=S(=O)(c1ccc(F)cc1)N1CC2(CCN(Cc3ccccc3)C2)c2ccccc21` (centres unmarked) [46c, 1′-Benzyl-1-((4-fluorophenyl)sulfonyl)spiro[indoline-3,3′-pyrrolidine]], the Ki on 5-HT7bR (read-out: 5-HT7) was found to be 56.1 µM; at 5-HT6R (read-out: 5-HT6), 2.45 µM.

Turning to `O=C1Nc2ccccc2C12CCNC2c1cccc(F)c1` (centres unmarked) [compound 6, 2′-(3-fluorophenyl)spiro[indoline-3,3′-pyrrolidin]-2-one], the Ki at 5-HT7bR (read-out: 5-HT7) was 8.48 µM; at 5-HT2AR (read-out: 5-HT2A) it was 5.05 µM; at 5-HT6R (read-out: 5-HT6), 6.75 µM; at 5-HT1AR (read-out: 5-HT1A) it was 16.9 µM.

As to `COc1ccc(C2NCCC23C(=O)Nc2ccccc23)cc1OC` (centres unmarked) [compound 7, 7], the Ki is 2.69 µM at 5-HT7bR, 5.45 µM at 5-HT2AR, 2.26 µM at 5-HT6R and 7.07 µM at 5-HT1AR.

With `O=C1Nc2ccccc2C12CCNC2c1ccc(OCc2ccc(F)cc2)cc1` (centres unmarked) [compound 8, 8], the Ki at 5-HT7bR was found to be 1.09 µM; at 5-HT2AR it was 2.28 µM; at 5-HT6R, 3.18 µM; on 5-HT1AR, 1.74 µM.

In the case of `O=C1Nc2ccccc2C12CCNC2c1ccc2c(c1)OCO2` (centres unmarked) [compound 9, 9], the Ki on 5-HT7bR came out at 8.82 µM; at 5-HT2AR, 2.69 µM; at 5-HT6R, 3.2 µM; at 5-HT1AR it was 9.84 µM.

With `O=C1Nc2ccccc2C12CCNC2c1ccc2c(c1)OCCO2` (centres unmarked) [compound 10, 10], the Ki at 5-HT7bR turned out to be 12.7 µM; on 5-HT2AR it was 4.33 µM; on 5-HT6R, 4.11 µM; on 5-HT1AR, 12.1 µM.

In the case of `N#Cc1cccnc1Oc1ccc(C2NCCC23C(=O)Nc2ccccc23)cc1` (centres unmarked) [compound 11, 11], the Ki was found to be 59 µM at 5-HT7bR, 8.68 µM at 5-HT2AR, 6.2 µM on 5-HT6R and 49.1 µM on 5-HT1AR.

As to `O=C1Nc2ccccc2C12CCNC2c1cccc2cccnc12` (centres unmarked) [compound 12, 12], the Ki at 5-HT7bR worked out at 10.5 µM; on 5-HT2AR, 1.12 µM; at 5-HT6R, 6.63 µM; on 5-HT1AR, 45.7 µM.

Turning to `COc1cc(C2NCCC23C(=O)Nc2ccccc23)ccc1OC(F)F` (centres unmarked) [compound 13, 13], the Ki stood at 7.49 µM at 5-HT7bR, 5.77 µM on 5-HT2AR, 7.73 µM on 5-HT6R and 7.14 µM at 5-HT1AR.

Consider `CC(C)c1ccc(C2NCCC23C(=O)Nc2ccccc23)cc1` (centres unmarked) [compound 14, 14], for which the Ki at 5-HT7bR stood at 8.98 µM; on 5-HT2AR, 4.54 µM; at 5-HT6R it was 8.62 µM; at 5-HT1AR it was 7.76 µM.

Regarding `Cn1c(=O)n(C)c2cc(C3NCCC34C(=O)Nc3ccccc34)ccc21` (centres unmarked) [compound 15, 15], the Ki on 5-HT7bR stood at 46.7 µM; at 5-HT2AR, 23.7 µM; at 5-HT6R, 9.49 µM; at 5-HT1AR, 40.5 µM.

For `O=C1Nc2ccc(F)cc2C12CCNC2c1ccc(F)c(Cl)c1` (centres unmarked) [compound 16, 16], the Ki worked out at 53.9 µM at 5-HT2AR and 16.5 µM at 5-HT6R.

Consider `O=C1N(S(=O)(=O)c2ccccc2)c2ccccc2C12CCNC2` (centres unmarked) [compound 17, 1-(Phenylsulfonyl)spiro[indoline-3,3′-pyrrolidin]-2-one], for which the Ki was found to be 58.3 µM on 5-HT7bR (read-out: 5-HT7) and 12.3 µM on 5-HT6R (read-out: 5-HT6).

With `O=C1Nc2ccccc2C12CCN(S(=O)(=O)c1ccccc1)C2` (centres unmarked) [compound 18, 1′-(Phenylsulfonyl)spiro[indoline-3,3′-pyrrolidin]-2-one], the Ki on 5-HT2AR stood at 87.4 µM; at 5-HT6R, 6.86 µM.
